Like-named read-outs stand apart in the source and are kept apart here. A value given as a limit tells only on which side of the number the result lay.

One test has as its target NlugOBP2 (Nilaparvata lugens, UniProt B6E9U2). Put plainly: Competitive fluorescence binding assay (1-NPN probe) with recombinant NlugOBP2. The procedure:
(§1) The excitation wavelength was 337 nm and the emission spectrum was recorded between 370 and 460 nm by a fluorescence spectrometer (Hitachi F-7000 Fluorescence Spectrophotometer, Japan) with a 1 cm light path quartz cuvette and 10 nm slits for both excitation and emission.

The target of the next test is NlugOBP3 (Nilaparvata lugens, UniProt B6E9U3). Put plainly: Competitive fluorescence binding assay (1-NPN probe) with recombinant NlugOBP3. The procedure: as §1
A further test deals with NlugOBP1 (Nilaparvata lugens, UniProt B6E9U1). Put plainly: Competitive fluorescence binding assay (1-NPN probe) with recombinant NlugOBP1. The procedure:
as §1

Setting [1] is: calculated from IC50, protein and 1-NPN at 2 µM, pH 7.4, read-out: OBP2 Ki.
Where [2] appears, read: displacement of 1-NPN, protein and 1-NPN at 2 µM, 50 mM Tris-HCl pH 7.4, read-out: OBP2 IC50.
The mark [3] stands for this setting: calculated from IC50, protein and 1-NPN at 2 µM, pH 7.4, read-out: OBP3 Ki.
The mark [4] stands for this setting: displacement of 1-NPN, protein and 1-NPN at 2 µM, 50 mM Tris-HCl pH 7.4, read-out: OBP3 IC50.
The mark [5] stands for this setting: calculated from IC50, protein and 1-NPN at 2 µM, pH 7.4, read-out: OBP1 Ki.
Setting [6] is: displacement of 1-NPN, protein and 1-NPN at 2 µM, 50 mM Tris-HCl pH 7.4, read-out: OBP1 IC50.

NlugOBP2, sequence (B6E9U2 entry or part of it): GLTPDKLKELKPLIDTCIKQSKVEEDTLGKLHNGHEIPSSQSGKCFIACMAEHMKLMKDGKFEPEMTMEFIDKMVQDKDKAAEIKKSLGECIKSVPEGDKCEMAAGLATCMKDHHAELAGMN
NlugOBP1, sequence (B6E9U1 entry or part of it): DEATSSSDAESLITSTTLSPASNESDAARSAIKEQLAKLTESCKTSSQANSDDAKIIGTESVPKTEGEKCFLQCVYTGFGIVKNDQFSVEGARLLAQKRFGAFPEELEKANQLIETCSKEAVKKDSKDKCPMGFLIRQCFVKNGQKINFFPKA
NlugOBP3, sequence (B6E9U3 entry or part of it): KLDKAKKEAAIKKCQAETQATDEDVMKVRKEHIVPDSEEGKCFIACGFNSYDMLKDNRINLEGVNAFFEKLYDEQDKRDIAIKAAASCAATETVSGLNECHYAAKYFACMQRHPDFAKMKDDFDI

Regarding `CCCCCCCCCCCCCC` [Ligand 32, Tetradecane], the Ki on NlugOBP2 (setting [1]), on NlugOBP3 (setting [3]) and at NlugOBP1 (setting [5]) was over 50 µM in each case. Also, the IC50 on NlugOBP2 (setting [2]), at NlugOBP3 (setting [4]) and on NlugOBP1 (setting [6]) was over 50 µM in each case.

Regarding `CC1=CC[C@@H]2C[C@H]1C2(C)C` [Ligand 34, (+)-α-Pinene], the values for the IC50 at NlugOBP2, at NlugOBP3 and at NlugOBP1 were over 50 µM, 16.1 µM and 36.4 µM, respectively. Further, the Ki on NlugOBP2 was over 50 µM; at NlugOBP3, 11.5 µM; on NlugOBP1, 31.1 µM.

In the case of `COC(C)(C)CCC[C@H](C)C/C=C/C(C)=C/C(=O)OC(C)C` (racemic) [Ligand 39, Methoprene], on NlugOBP2, the IC50 came out at 21.1 µM, the Ki is 18.1 µM and the “binding ability with NlugOBP2 (in words)” value is reported as “high binding ability”. Also, at NlugOBP3, the half-inhibitory concentration (IC50) turned out to be 14.7 µM, the Ki was found to be 10.5 µM and the “binding ability with NlugOBP3 (in words)” value was “high binding ability”. On NlugOBP1, the IC50 was 19.4 µM, the inhibition constant (Ki) was found to be 16.6 µM and the “binding ability with NlugOBP1 (in words)” value is given as “high binding ability”.

In the case of `CCCCCOC(C)=O` [Ligand 18, Amyl acetate], the inhibition constant Ki at NlugOBP2 (setting [1]), at NlugOBP3 (setting [3]) and at NlugOBP1 (setting [5]) was over 50 µM each time. For the same compound, the IC50 at NlugOBP2 (setting [2]), at NlugOBP3 (setting [4]) and at NlugOBP1 (setting [6]) was over 50 µM each time.

For the compound `CCCCCCCCCCCC=O` [Ligand 12, Dodecyl aldehyde], the Ki was over 50 µM at NlugOBP2 (setting [1]), 18.9 µM at NlugOBP3 (setting [3]) and 16.6 µM at NlugOBP1 (setting [5]). Further, the IC50 on NlugOBP2 (setting [2]) is over 50 µM; on NlugOBP3 (setting [4]) it was 26.5 µM; at NlugOBP1 (setting [6]) it was 19.5 µM.

In the case of `CCCCCCCCCCCCC` [Ligand 29, Tridecane], the inhibition constant (Ki) on NlugOBP2 (setting [1]), on NlugOBP3 (setting [3]) and on NlugOBP1 (setting [5]) was over 50 µM in each case. Besides, the IC50 on NlugOBP2 (setting [2]), at NlugOBP3 (setting [4]) and on NlugOBP1 (setting [6]) was over 50 µM in each case.

For `C=C(C)[C@H]1CC=C(C)CC1` [Ligand 35, (R)-(+)-Limonene], the Ki at NlugOBP2 (setting [1]) was over 50 µM; at NlugOBP3 (setting [3]), 23.6 µM; at NlugOBP1 (setting [5]), 27.6 µM. Moreover, the IC50 on NlugOBP2 (setting [2]) was over 50 µM; on NlugOBP3 (setting [4]), 33.1 µM; at NlugOBP1 (setting [6]) it was 32.4 µM. In addition, the “binding ability with NlugOBP3 (in words)” value at NlugOBP3 is recorded as “considerable affinities”.

For `CCCCCCCCCCCC(C)=O` [Ligand 15, 2-Tridecanone], the “binding ability with NlugOBP2 (in words)” value on NlugOBP2 is “relatively high binding abilities”. Further, the figures for the Ki on NlugOBP2 (setting [1]), on NlugOBP3 (setting [3]) and at NlugOBP1 (setting [5]) were 37.1 µM, 8.6 µM and 20.5 µM, respectively. Besides, the IC50 at NlugOBP2 (setting [2]) came out at 43.2 µM; at NlugOBP3 (setting [4]), 12 µM; at NlugOBP1 (setting [6]), 24 µM. For the same compound, at NlugOBP3, the “binding ability with NlugOBP3 (in words)” value is recorded as “relatively high binding abilities”. The “binding ability with NlugOBP1 (in words)” value on NlugOBP1 is “relatively high binding abilities”.

For the compound `CCC/C=C/C=O` [Ligand 13, (E)-2-Hexenal], at NlugOBP2, the IC50 amounted to 33.5 µM, the Ki was 28.8 µM and the “binding ability with NlugOBP2 (in words)” value was “can bind”. Moreover, at NlugOBP3, the IC50 worked out at 42 µM, the Ki is 30 µM and the “binding ability with NlugOBP3 (in words)” value was “could bind”. At NlugOBP1, the IC50 is over 50 µM, the Ki is over 50 µM and the “binding ability with NlugOBP1 (in words)” value is “binds none”.

In the case of `O=Cc1ccccc1` [Ligand 14, Benzaldehyde], the IC50 at NlugOBP2 is 38.7 µM; on NlugOBP3 it was 41 µM; on NlugOBP1, over 50 µM. Further, the Ki at NlugOBP2 was 33.3 µM; on NlugOBP3 it was 29.3 µM; at NlugOBP1 it was over 50 µM.

For the compound `CCOC(=O)c1ccccc1` [Ligand 23, Ethyl benzoate], the IC50 is over 50 µM at NlugOBP2, 39 µM at NlugOBP3 and over 50 µM on NlugOBP1. Also, the figures for the Ki at NlugOBP2, at NlugOBP3 and on NlugOBP1 were over 50 µM, 27.9 µM and over 50 µM, respectively.

Take `CCCCCC(C)O` (stereo not drawn) [Ligand 2, 2-Heptanol]: the inhibition constant Ki at NlugOBP2 (setting [1]), on NlugOBP3 (setting [3]) and at NlugOBP1 (setting [5]) was over 50 µM in each case. Further, the IC50 at NlugOBP2 (setting [2]), at NlugOBP3 (setting [4]) and on NlugOBP1 (setting [6]) was over 50 µM throughout.

Turning to `CC(C)=CCC/C(C)=C/CC/C(C)=C/CO` [Ligand 5, Farnesol], at NlugOBP2, the “binding ability with NlugOBP2 (in words)” value is given as “high binding ability”. Besides, the Ki is 19.8 µM on NlugOBP2 (setting [1]), 4.9 µM at NlugOBP3 (setting [3]) and 19.5 µM on NlugOBP1 (setting [5]). Also, the IC50 turned out to be 23 µM on NlugOBP2 (setting [2]), 6.9 µM at NlugOBP3 (setting [4]) and 22.8 µM at NlugOBP1 (setting [6]). Further, on NlugOBP3, the “binding ability with NlugOBP3 (in words)” value was “high binding ability”. The “binding ability with NlugOBP1 (in words)” value on NlugOBP1 was “high binding ability”.

Turning to `C=CC(=C)CCC=C(C)C` [Ligand 33, Myrcene], the Ki at NlugOBP2 (setting [1]) is 29.1 µM; on NlugOBP3 (read-out: Ki with NlugOBP3), 7.2 µM; at NlugOBP1 (setting [5]) it was 16.2 µM. Further, the IC50 at NlugOBP2 (setting [2]) amounted to 33.9 µM; at NlugOBP3 (setting [4]), 10.1 µM; at NlugOBP1 (setting [6]), 19 µM.

As to `CCCCCCCCCCCCCCCCC` [Ligand 30, Heptadecane], the Ki at NlugOBP2 (setting [1]), on NlugOBP3 (setting [3]) and on NlugOBP1 (setting [5]) was over 50 µM throughout. The IC50 on NlugOBP2 (setting [2]), at NlugOBP3 (setting [4]) and at NlugOBP1 (setting [6]) was over 50 µM in each case.

With `CC(=O)c1ccccc1` [Ligand 17, Acetophenone], the “binding ability with NlugOBP2 (in words)” value on NlugOBP2 was “relatively high binding abilities”. The results for the Ki on NlugOBP2 (setting [1]), at NlugOBP3 (setting [3]) and at NlugOBP1 (setting [5]) were 27.8 µM, 23.1 µM and 29.3 µM, respectively. Further, the results for the IC50 at NlugOBP2 (setting [2]), at NlugOBP3 (setting [4]) and at NlugOBP1 (setting [6]) were 32.3 µM, 32.4 µM and 34.3 µM, respectively. Moreover, the “binding ability with NlugOBP3 (in words)” value at NlugOBP3 is given as “relatively high binding abilities”. Also, the “binding ability with NlugOBP1 (in words)” value at NlugOBP1 is given as “relatively high binding abilities”.

With `CCCCCCCCCCCC(=O)O` [Ligand 26, Dodecanoic acid], the IC50 is over 50 µM on NlugOBP2, 13.9 µM on NlugOBP3 and 12.1 µM at NlugOBP1. Further, the Ki was over 50 µM at NlugOBP2, 9.9 µM at NlugOBP3 and 10.3 µM on NlugOBP1.

As to `C=CC(C)(O)CCC=C(C)C` (stereo not drawn) [Ligand 6, Linalool], at NlugOBP2, the IC50 was over 50 µM and the Ki is over 50 µM. Also, on NlugOBP3, the IC50 is over 50 µM, the Ki was over 50 µM and the “binding ability with NlugOBP3 (in words)” value was “none”. Moreover, at NlugOBP1, the IC50 is 40.8 µM, the Ki came to 34.7 µM and the “binding ability with NlugOBP1 (in words)” value was “some affinities”.

On to `CC(=O)OCCC(C)C` [Ligand 19, Isoamyl acetate], for which the values for the inhibition constant Ki on NlugOBP2 (setting [1]), at NlugOBP3 (setting [3]) and at NlugOBP1 (setting [5]) were over 50 µM, over 50 µM and 30.5 µM, respectively. In addition, the IC50 at NlugOBP2 (setting [2]) is over 50 µM; at NlugOBP3 (setting [4]), over 50 µM; on NlugOBP1 (setting [6]) it was 35.7 µM. Also, the “binding ability with NlugOBP3 (in words)” value at NlugOBP3 was “none”. For the same compound, the “binding ability with NlugOBP1 (in words)” value on NlugOBP1 is given as “some affinities”.

`CCC/C=C/COC(C)=O` [Ligand 20, (E)-2-Hexenyl acetate]: the results for the Ki on NlugOBP2 (setting [1]), on NlugOBP3 (setting [3]) and on NlugOBP1 (setting [5]) were 25.2 µM, 22.4 µM and over 50 µM, respectively. For the same compound, the IC50 at NlugOBP2 (setting [2]) was 29.3 µM; at NlugOBP3 (setting [4]), 31.3 µM; at NlugOBP1 (setting [6]) it was over 50 µM.

With `CC(C)c1ccccc1` [Ligand 38, Cumene], the IC50 is 39.2 µM on NlugOBP2, 37.2 µM on NlugOBP3 and over 50 µM on NlugOBP1. For the same compound, the Ki was 33.7 µM at NlugOBP2, 26.6 µM at NlugOBP3 and over 50 µM on NlugOBP1.

As for `C=C1CC/C=C(\C)CC[C@@H]2[C@@H]1CC2(C)C` [Ligand 36, β-Caryophyllene], at NlugOBP2, the half-maximal inhibitory concentration (IC50) was 30.1 µM and the Ki was 25.9 µM. For the same compound, at NlugOBP3, the IC50 stood at 37.4 µM, the inhibitory constant (Ki) came to 26.7 µM and the “binding ability with NlugOBP3 (in words)” value was “considerable affinities”. Further, on NlugOBP1, the IC50 is over 50 µM and the Ki was over 50 µM.

On to `c1ccc(Nc2cccc3ccccc23)cc1` [Ligand 1-NPN, N-phenyl-1-naphthyl-amine, reference compound], for which the Kd on NlugOBP2 was 10.3 ± 1.3 µM; at NlugOBP3 it was 3.2 ± 0.3 µM; on NlugOBP1, 9.7 ± 0.9 µM.

For `COC(=O)c1ccccc1` [Ligand 24, Methyl benzoate], the IC50 at NlugOBP2, at NlugOBP3 and on NlugOBP1 was over 50 µM in each case. Further, the Ki at NlugOBP2, at NlugOBP3 and on NlugOBP1 was over 50 µM in each case.

As for `CC/C=C/CCO` [Ligand 4, (E)-3-Hexen-1-ol], the values for the IC50 on NlugOBP2, on NlugOBP3 and at NlugOBP1 were over 50 µM, 29.6 µM and over 50 µM, respectively. For the same compound, the Ki at NlugOBP2 is over 50 µM; at NlugOBP3 it was 21.1 µM; on NlugOBP1, over 50 µM.

As for `CC12CCC(CC1)C(C)(C)O2` [Ligand 40, Cineole], the Ki at NlugOBP2 (setting [1]), on NlugOBP3 (setting [3]) and at NlugOBP1 (setting [5]) was over 50 µM throughout. Also, the IC50 on NlugOBP2 (setting [2]), at NlugOBP3 (setting [4]) and on NlugOBP1 (setting [6]) was over 50 µM each time.

For `COC(=O)c1ccccc1O` [Ligand 25, Methyl salicylate], the IC50 was 37.4 µM on NlugOBP2, 44.8 µM at NlugOBP3 and over 50 µM on NlugOBP1. The figures for the Ki on NlugOBP2, at NlugOBP3 and on NlugOBP1 were 32.2 µM, 32 µM and over 50 µM, respectively.

Source of the values: article PMC3235172, “Distinct Expression Profiles and Different Functions of Odorant Binding Proteins in Nilaparvata lugens Stål” (PLoS ONE, 2011).
